From publication PMC6100082, “Pyridine-Ureas as Potential Anticancer Agents: Synthesis and In Vitro Biological Evaluation” (Molecules : A Journal of Synthetic Chemistry and Natural …, 2018) come the findings set out here.

What all share (test): NCI one-dose SRB assay (Melanoma)
Assay type in all cases: cell-based, human
On the technique in general: The SRB assay estimates cell density from bound dye.

Assay [1] deals with MALME-3M. As to conditions: for Growth Percent: 1.00E-5 Molar; for inhibition at 10 µM: Homo sapiens, read-out: Percentage growth inhibition (GI%). As to the method: (§1) The structures of all the newly prepared pyridine-ureas 8a–n were submitted to the National Cancer Institute (NCI) Developmental Therapeutic Program. Eight compounds 8b, 8d, 8e, 8i, 8j and 8l–n were selected to be examined for their in vitro growth inhibitory activity. The anticancer assays were carried out according to the protocol of the Drug Evaluation Branch, NCI, Bethesda. The selected pyridine-ureas were tested at one dose primary anticancer assay against a panel of approximately 58 cancer lines (concentration 10^−5 M). The tested human cancer cell lines emerged from nine different cancer subtypes: leukemia, colon, melanoma, ovarian, lung, CNS, renal, breast and prostate cancers. The sulforhodamine B (SRB) protein assay was adopted to estimate the cell viability and growth. The results were reported as mean-graph of the percentage growth of the treated cells, and presented as percentage growth inhibition (GI%) caused by the test compounds (Table 2).
(§2) The anticancer assays were performed in accordance with the protocol of the Drug Evaluation Branch, NCI, Bethesda. A 48 h drug exposure protocol was used and sulforhodamine B (SRB) protein assay was applied to estimate the cell viability and growth, as reported earlier.

Assay [2] deals with MDA-MB-435. As to conditions: for Growth Percent: MDA-MB-435, 1.00E-5 Molar; for inhibition at 10 µM: Homo sapiens, read-out: Percentage growth inhibition (GI%). As for the experimental part:
as §1, §2

The subject of assay [3] is UACC-62. As to conditions: for Growth Percent: UACC-62, 1.00E-5 Molar; for inhibition at 10 µM: Homo sapiens, read-out: Percentage growth inhibition (GI%). As for the experimental part: as §1, §2
Assay [4] concerns LOX IMVI. The following applies: for Growth Percent: 1.00E-5 Molar; for inhibition at 10 µM: Homo sapiens, read-out: Percentage growth inhibition (GI%). As to the method:
as §1, §2

Assay [5] deals with SK-MEL-2. The following applies: for Growth Percent: SK-MEL-2, 1.00E-5 Molar; for inhibition at 10 µM: Homo sapiens, read-out: Percentage growth inhibition (GI%). As to the method:
as §1, §2

The test system of assay [6] is M14. The following applies: for Growth Percent: M14, 1.00E-5 Molar; for inhibition at 10 µM: Homo sapiens, read-out: Percentage growth inhibition (GI%). As for the experimental part: as §1, §2
Assay [7] concerns SK-MEL-28. The following applies: for Growth Percent: SK-MEL-28, 1.00E-5 Molar; for inhibition at 10 µM: Homo sapiens, read-out: Percentage growth inhibition (GI%). As for the experimental part: as §1, §2
Assay [8] has as its system UACC-257. The following applies: for Growth Percent: UACC-257, 1.00E-5 Molar; for inhibition at 10 µM: Homo sapiens, read-out: Percentage growth inhibition (GI%). As to the method:
as §1, §2

Assay [9] relates to SK-MEL-5. The following applies: for Growth Percent: SK-MEL-5, 1.00E-5 Molar; for inhibition at 10 µM: Homo sapiens, read-out: Percentage growth inhibition (GI%). As to the method:
as §1, §2

Turning to “1-(4-Chloro-4-(trifluoromethyl)cyclohexa-2,5-dien-1-yl)-3-(6-(3,4-dimethoxyphenyl)-2-methylpyridin-3-yl)urea [Compound 8l]”, the “Percentage growth inhibition (GI%)” value came out at 10% in assay [1] (10 μM); 23% in [2] (MDA-MB-435, 10 μM); 23% in assay [3] (UACC-62, 10 μM); 22% in assay [4] (10 μM); 13% in assay [5] (SK-MEL-2, 10 μM); 53% in assay [6] (M14, 10 μM). Also, the “Percentage growth inhibition (GI%)” value in assay [7] (SK-MEL-28, 10 μM) was found to be 27%; in assay [8] (UACC-257, 10 μM) it was 44%; in [9] (SK-MEL-5, 10 μM), 37%. For the same molecule, the “Growth Percent” value in assay [1] was found to be 90.89%; in assay [2] it was 77.84%; in assay [3] it was 77.31%; in [4] it was 78.57%; in [5], 87.87%; in [6], 47.02%. Moreover, the “Growth Percent” value in [7] stood at 73.58%; in assay [8], 56.26%; in [9], 63.85%.

As to `COc1ccc(-c2ccc(NC(=O)Nc3ccc(Cl)cc3)c(C)n2)cc1` [Compound 8d, 1-(4-Chlorophenyl)-3-(6-(4-methoxyphenyl)-2-methylpyridin-3-yl) Urea], the “Growth Percent” value in assay [1] turned out to be 104.47%; in [2] it was 88.00%; in assay [3] it was 71.19%; in assay [4], 85.30%; in assay [5], 104.03%; in assay [6], 86.55%. Moreover, the entries for the “Growth Percent” value in assay [7], in assay [8] and in assay [9] were 89.84%, 78.79% and 87.05%, respectively. Also, the inhibition at 10 µM was under 10% in [1] (10 μM); 12% in assay [2] (MDA-MB-435, 10 μM); 29% in [3] (UACC-62, 10 μM); 15% in [4] (10 μM); under 10% in assay [5] (SK-MEL-2, 10 μM); 14% in [6] (M14, 10 μM). In addition, the inhibition at 10 µM stood at 11% in assay [7] (SK-MEL-28, 10 μM); 22% in assay [8] (UACC-257, 10 μM); 13% in assay [9] (SK-MEL-5, 10 μM).

In the case of `COc1ccc(-c2ccc(NC(=O)Nc3cccc(C(F)(F)F)c3)c(C)n2)cc1OC` [Compound 8i, 1-(6-(3,4-Dimethoxyphenyl)-2-methylpyridin-3-yl)-3-(3-(trifluoromethyl)phenyl) Urea], the “Growth Percent” value in assay [1] stood at 95.26%; in [2], 73.17%; in assay [3], 81.66%; in [4], 70.96%; in assay [5], 73.78%; in assay [6], 31.21%. In addition, the “Growth Percent” value is 75.52% in assay [7], 81.62% in assay [8] and 58.49% in assay [9]. Besides, the inhibition at 10 µM in assay [1] (10 μM) is under 10%; in [2] (MDA-MB-435, 10 μM), 27%; in assay [3] (UACC-62, 10 μM), 19%; in [4] (10 μM), 30%; in assay [5] (SK-MEL-2, 10 μM) it was 27%; in assay [6] (M14, 10 μM) it was 69%. Moreover, the inhibition at 10 µM in assay [7] (SK-MEL-28, 10 μM) came to 25%; in [8] (UACC-257, 10 μM), 19%; in [9] (SK-MEL-5, 10 μM), 42%.

In general, inhibition refers to how much of the control response was suppressed.
